Assay results taken from US5223486A, “Inhibition of cancer procoagulant” (University Research Corporation, priority 1991, dated 1993).
Like-named read-outs stand apart in the source and are kept apart here. Where a SMILES comes first, the peptide text is derived from it. [ ]: non-standard residue; d: D form. The star is where a group is joined. ξ: configuration not given here. ξF = NC(Cc1ccccc1)C(=O)O; Cbz = O=C(OCc1ccccc1)*; ξV = CC(C)C(N)C(=O)O; CHN2 = [N-]=[N+]=C*; ξP = O=C(O)C1CCCN1; tBu = CC(C)(C)*

Legend:
[1] = test system: cancer procoagulant (CP); type: biochemical, human
Experimental: Fresh human placenta was obtained from the delivery deck, the amnion-chorion membranes were removed from the placental tissue and extracted in 3 to 4 changes of 20 mM veronal buffer (pH 7.4) as described in Gordon et al. (1985) Blood 66:1261-1265. The extracts were purified over an anti-Cp antibody affinity column. The purified CP sample was assayed for procoagulant activity by measuring clotting time of normal and factor VII deficient citrated plasma. […] To assure that there was no tissue factor-factor VIIa activity in the preparation, 5 μl (1.3 mg/ml) of rabbit polyclonal anti-tissue factor antibody was added to the sample and incubated for 30 min. at 25° C.

[2] = molecular target: cathepsin B (Homo sapiens, UniProt P07858); conditions: cited from earlier work
[3] = test system: cancer procoagulant (CP); assay: one-stage plasma recalcification clotting time assay, inhibition of CP procoagulant activity; type: biochemical, rabbit; conditions: for percent inhibition of CP: 30 min at 25° C.
[4] = molecular target: T1, papain (Carica papaya, UniProt P00784); type: biochemical; conditions: 30 min at 25° C.
T1 construct: purchased Sigma Chemical Co. (St. Louis, MO)
T1 sequence (P00784 134-345): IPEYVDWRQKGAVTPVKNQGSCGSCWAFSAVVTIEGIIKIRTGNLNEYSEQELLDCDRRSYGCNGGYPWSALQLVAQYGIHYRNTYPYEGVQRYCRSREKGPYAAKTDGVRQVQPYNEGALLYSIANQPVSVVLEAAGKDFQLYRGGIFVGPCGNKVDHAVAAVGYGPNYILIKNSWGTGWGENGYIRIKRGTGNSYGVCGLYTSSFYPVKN
Experimental: (§1) If the volume of the sample was too small, 0.05 ml of the sample was used with proportional reduction in the volume of the other reagents. […] These dilutions of RVV were used to calibrate the assay plasma and to verify linearity of the clotting times over the range of procoagulant activity.
(§2) The procoagulant activity of the samples was expressed as clotting time in seconds or as the percent activity, calculated as the percent reduction of clotting time (CT) from the corresponding buffer blank [(blank time (sec)-sample clotting time (sec))/ blank time (sec)]×100. The percent inhibition of the control and experimental procoagulants by the peptidyl diazomethyl ketone and peptidyl sulfonium salt inhibitors was expressed as the percent increase in the clotting time compared with the uninhibited sample [(inhibited CT-uninhibited CT)/uninhibited CT]×100.
(§3) Papain, a factor X activator and cysteine proteinase standard, RVV (Russell's viper venom) and rabbit brain thromboplastin, a tissue factor (TF) standard, were purchased from Sigma Chemical Co. (St. Louis, MO). To determine the effect of the peptidyl diazomethyl ketone and peptidyl sulfonium salt inhibitors on CP, the control procoagulants (Papain, RVV and TF), and the assay plasma system, the procoagulant activity of the samples and controls was analyzed with and without the addition of different concentrations of the inhibitors. […] Peptidyl diazomethyl ketone inhibitors were incubated with the procoagulant samples at a final concentration of 400 μM, 200 μM, 100 μM, 10 μM and 1 μM. Peptidyl sulfonium salt inhibitors were incubated with the samples at a final concentration of 800 μM, as well as the same concentrations as the diazomethyl ketones. At the end of the inhibition incubation, each sample was analyzed in the coagulation assay.

[5] = test system: control procoagulants (TF, RVV and Papain); assay: effect on the coagulation controls and the assay plasma; type: biochemical; conditions: compared with D1-D3 results of FIG. 1
Experimental: The procoagulant activity of the samples and the controls was measured in a one-stage plasma recalcification clotting time assay using a model 202A clot timer (Heller Laboratories, Santa Rose, CA). […]. If the volume of the sample was too small, 0.05 ml of the sample was used with proportional reduction in the volume of the other reagents. […]. These dilutions of RVV were used to calibrate the assay plasma and to verify linearity of the clotting times over the range of procoagulant activity.
as §2
Papain, a factor X activator and cysteine proteinase standard, RVV (Russell's viper venom) and rabbit brain thromboplastin, a tissue factor (TF) standard, were purchased from Sigma Chemical Co. (St. Louis, MO). To determine the effect of the peptidyl diazomethyl ketone and peptidyl sulfonium salt inhibitors on CP, the control procoagulants (Papain, RVV and TF), and the assay plasma system, the procoagulant activity of the samples and controls was analyzed with and without the addition of different concentrations of the inhibitors. […]; there was no effect of these solvents on the assay plasma activity. Preliminary experiments evaluated the time (15, 30 and 50 min) and temperature (25° C. and 37° C.) of the inhibition reaction; 30 min at 25° C. was selected as the optimum conditions and was used for the subsequent studies. […] At the end of the inhibition incubation, each sample was analyzed in the coagulation assay. […]

[6] = test system: RVV (Russell's viper venom); assay: one-stage plasma recalcification clotting time assay, RVV control procoagulant; type: biochemical; conditions: 30 min at 25° C.; for percent inhibition of RVV (negative = slight activation): 200 μM peptidyl diazomethyl ketone; for effect on activity of RVV: 400 μM peptidyl sulfonium salt
Experimental: as §1, §2, §3

[7] = molecular target: T2, rabbit brain thromboplastin, a tissue factor (TF) standard (Oryctolagus cuniculus, UniProt P24055); assay: one-stage plasma recalcification clotting time assay, TF control procoagulant; type: biochemical; conditions: 30 min at 25° C.; for inhibition of TF: 200 μM peptidyl diazomethyl ketone; for enhancement of TF activity (negative inhibition): 400 μM peptidyl sulfonium salt
T2 construct: rabbit brain thromboplastin, a tissue factor (TF) standard; purchased Sigma Chemical Co. (St. Louis, MO); host or cells: rabbit brain
T2 sequence (P24055 33-292): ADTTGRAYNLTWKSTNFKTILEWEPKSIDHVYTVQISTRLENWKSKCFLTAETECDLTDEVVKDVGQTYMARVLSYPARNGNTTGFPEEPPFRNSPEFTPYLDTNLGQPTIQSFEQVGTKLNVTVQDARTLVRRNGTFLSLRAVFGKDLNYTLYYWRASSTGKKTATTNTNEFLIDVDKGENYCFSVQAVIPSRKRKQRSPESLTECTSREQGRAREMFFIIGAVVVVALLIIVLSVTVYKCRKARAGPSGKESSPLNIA
Experimental: The procoagulant activity of the samples and the controls was measured in a one-stage plasma recalcification clotting time assay using a model 202A clot timer (Heller Laboratories, Santa Rose, CA). […] If the volume of the sample was too small, 0.05 ml of the sample was used with proportional reduction in the volume of the other reagents. […] These dilutions of RVV were used to calibrate the assay plasma and to verify linearity of the clotting times over the range of procoagulant activity.
as §2, §3
Each CP or control sample was adjusted to a concentration such that the procoagulant activity reduced the clotting time of the blank assay plasma from 10% to 30%, within the linear range of the assay (Gordon et al. (1979) J. Natl. Cancer Inst. 62:773-776).

[8] = molecular target: cathepsin L (Homo sapiens, UniProt P07711); conditions: cited from earlier work
[9] = test system: cathepsin L; conditions: cathepsin B from rat and human; substrate Z-Phe-Arg-4-methyl-7-coumarylamide; cited from earlier work
[10] = test system: isolated rat hepatocytes; conditions: 10^-5 M; cited from earlier work
[11] = molecular target: clostripain (Hathewaya histolytica, UniProt P09870); conditions: cited from earlier work
[12] = test system: nonsmall cell lung cancer; conditions: patients with nonsmall cell lung cancer limited to one hemithorax; cited from earlier work
[13] = test system: small cell carcinoma of the lung; conditions: patients with small cell carcinoma of the lung; cited from earlier work

cathepsin L (Homo sapiens, UniProt P07711), sequence (P07711 114-333, species assumed): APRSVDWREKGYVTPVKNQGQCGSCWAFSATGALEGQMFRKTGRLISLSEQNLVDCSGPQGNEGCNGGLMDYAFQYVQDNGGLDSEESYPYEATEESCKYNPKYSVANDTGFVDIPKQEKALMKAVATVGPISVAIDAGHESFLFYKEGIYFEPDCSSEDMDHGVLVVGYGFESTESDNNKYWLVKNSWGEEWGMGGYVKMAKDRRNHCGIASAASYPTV
clostripain, sequence (P09870 191-526): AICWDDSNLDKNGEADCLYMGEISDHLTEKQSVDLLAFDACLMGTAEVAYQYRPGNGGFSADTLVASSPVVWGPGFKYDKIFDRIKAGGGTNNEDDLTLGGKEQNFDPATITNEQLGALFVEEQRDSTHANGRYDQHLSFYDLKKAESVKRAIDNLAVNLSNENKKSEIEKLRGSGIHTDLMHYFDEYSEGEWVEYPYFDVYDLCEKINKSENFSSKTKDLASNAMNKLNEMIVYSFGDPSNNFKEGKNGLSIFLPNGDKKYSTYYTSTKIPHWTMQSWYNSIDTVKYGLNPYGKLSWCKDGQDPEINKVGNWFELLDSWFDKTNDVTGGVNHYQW
clostripain, sequence (P09870 51-181): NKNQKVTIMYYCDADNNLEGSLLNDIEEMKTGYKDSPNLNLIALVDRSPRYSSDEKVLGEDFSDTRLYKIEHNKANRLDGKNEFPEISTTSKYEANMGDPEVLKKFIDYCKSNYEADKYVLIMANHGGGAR

HgCl2 [Hg^++]
inhibition of procoagulant activity of purified CP ([1]; 1 mM iodoacetamide in water, 0.1 mM HgCl2 in water): all the procoagulant activity was inhibited

[N-]=[N+]=CC(=O)C(CCCCN)NC(=O)OCc1ccccc1 (stereo not shown) [Z-Lys diazomethyl ketone]
inhibition of cathepsin B [2]: powerful inhibitor

CC(C)C(NC(=O)CNC(=O)CNC(=O)OCc1ccccc1)C(=O)C=[N+]=[N-] (stereo not drawn) [D4, Z-Gly-Gly-Val diazomethyl ketone] (Cbz-Gly-Gly-[ξV]-CHN2)
percent inhibition of CP ([3]; 100 μM inhibitor): about 48%
percent inhibition of papain ([4]; 100 μM inhibitor): 2%
effect on the coagulation controls and the assay plasma [5]: essentially the same results

[N-]=[N+]=CC(=O)CNC(=O)C1CCCN1C(=O)OCc1ccccc1 (stereo not shown) [D3, Z-Pro-Gly diazomethyl ketone] (Cbz-[ξP]-Gly-CHN2)
percent inhibition of papain ([4]; 100 μM inhibitor): 15%
percent inhibition of papain ([4]; 200 μM inhibitor): 88%
percent inhibition of RVV (negative = slight activation) [6]: -10% to -13%
inhibition of TF [7]: no significant inhibition

[N-]=[N+]=CC(=O)CNC(=O)C(Cc1ccccc1)NC(=O)OCc1ccccc1 (stereo not shown) [D2, Z-Phe-Gly diazomethyl ketone] (Cbz-[ξF]-Gly-CHN2)
percent inhibition of CP ([3]; 100 μM inhibitor): 97%
percent inhibition of papain ([4]; 100 μM inhibitor): 88%
percent inhibition of papain ([4]; 200 μM inhibitor): 97%
percent inhibition of RVV (negative = slight activation) [6]: -10% to -13%
inhibition of TF [7]: no significant inhibition

CC(NC(=O)OCc1ccccc1)C(=O)NC(C)C(=O)N1CCCC1C(=O)C=[N+]=[N-] (stereo not drawn) [D5, Z-Ala-Ala-Pro diazomethyl ketone] (Cbz-Ala-Ala-Pro-CHN2; configuration not given here)
percent inhibition of CP ([3]; 100 μM inhibitor): ~62%
percent inhibition of papain ([4]; 100 μM inhibitor): 2%
effect on the coagulation controls and the assay plasma [5]: essentially the same results

CC(C)(C)Oc1ccc(C[C@H](NC(=O)[C@H](Cc2ccccc2)NC(=O)OCc2ccccc2)C(=O)C=[N+]=[N-])cc1 [Z-Phe-Tyr(O-t-Bu) diazomethyl ketone] (Cbz-Phe-Tyr(tBu)-CHN2)
rate of inactivation of cathepsin L relative to cathepsin B [8]: 2.5×10^4

NC(=O)CI [iodacetamide, iodoacetamide]
inhibition of procoagulant activity of purified CP [1]: all the procoagulant activity was inhibited

C[C@H](NC(=O)[C@H](Cc1ccccc1)NC(=O)OCc1ccccc1)C(=O)C=[N+]=[N-] [D1, Z-Phe-Ala diazomethyl ketone]
percent inhibition of CP ([3]; 100 μM inhibitor): 68%
inhibition of CP by D1 relative to S1 (times greater) ([3]; same concentration (100 μM), same peptide): ~3 times
percent inhibition of papain ([4]; 100 μM inhibitor): 85%
percent inhibition of papain ([4]; 200 μM inhibitor): 97%
percent inhibition of RVV (negative = slight activation) [6]: -10% to -13%
inhibition of TF [7]: no significant inhibition
affinity for cathepsin L relative to cathepsin B [9]: about 2000 fold
inhibition of protein synthesis [10]: 21%
reactivity toward clostripain [11]: absolutely inert

OCCN(CCO)c1nc(N2CCCCC2)c2nc(N(CCO)CCO)ncc2n1 [RA-233, mopidamol]
survival [12]: statistically significant prolongation of survival

CC(NC(=O)C(C)NC(=O)OCc1ccccc1)C(=O)C=[N+]=[N-] (stereo not shown) [D6, Z-Ala-Ala diazomethyl ketone]
percent inhibition of CP ([3]; 100 μM inhibitor): 92%
percent inhibition of papain ([4]; 100 μM inhibitor): 31%
effect on the coagulation controls and the assay plasma [5]: essentially the same results

Z-Phe-Lys-CH2 -S^+ (CH3)2 bromide [S2]
percent inhibition of CP ([3]; 10 μM inhibitor): no inhibition
percent inhibition of CP ([3]; 100 μM inhibitor): 33%
percent inhibition of CP ([3]; 200 μM inhibitor): 54%
percent inhibition of CP ([3]; 400 μM inhibitor): 72%
percent inhibition of papain ([4]; 10 μM inhibitor): 20%
percent inhibition of papain ([4]; 100 μM inhibitor): almost the same effect
percent inhibition of papain ([4]; 200 μM inhibitor): almost the same effect
effect on activity of RVV [6]: Neither S1 nor S2 affected the activity of RVV
enhancement of TF activity (negative inhibition) [7]: 8%

CC(=O)CC(c1ccccc1)c1c(O)c2ccccc2oc1=O (stereo not shown) [Warfarin]
survival [13]: significant improvement
time to first evidence disease progression [13]: significant prolongation

Z-Phe-Ala-CH2 -S^+ (CH3)2 bromide [S1]
percent inhibition of CP ([3]; 10 μM inhibitor): no inhibition
percent inhibition of CP ([3]; 100 μM inhibitor): 26%
percent inhibition of CP ([3]; 200 μM inhibitor): 51%
percent inhibition of CP ([3]; 400 μM inhibitor): 62%
percent inhibition of papain ([4]; 10 μM inhibitor): 55%
percent inhibition of papain ([4]; 100 μM inhibitor): completely inhibited
percent inhibition of papain ([4]; 200 μM inhibitor): completely inhibited
effect on activity of RVV [6]: Neither S1 nor S2 affected the activity of RVV
enhancement of TF activity (negative inhibition) [7]: 5%
